{"source": "patent US10092540B2", "about": "“Method of treatment of a mucopolysaccharidosis” (INVENTIVA, priority 2013, dated 2018)", "key": {"[1]": {"test_system": "Bovine aortic endothelial cells (ECACC 92010601)", "experiment": "35S-labeled GAG level in culture supernatant of bovine aortic endothelial cells", "type": "cell-based", "procedure": "Bovine aortic endothelial cells (ECACC 92010601), cultured in 6-well plates, were incubated for 24 h in the presence of ^35S sodium sulfate (10 μci/ml) and of odiparcil solubilized in DMSO at various concentrations (1-10 μM; 0.1% final concentration of DMSO). The culture supernatants were recovered and the cell layers were rinsed with phosphate buffer (PBS). The culture supernatants and the rinsing solutions were combined in tubes. A solution of unlabeled dermatan sulfate (200 μg) was then added in order to serve as an entraining agent. The unincorporated ^35S was then removed by gel filtration on Sephadex G25 columns, the GAGs being eluted in the column exclusion fraction (V0). […] After centrifugation, the alcoholic precipitates were redissolved in 0.9% sodium chloride and then the radioactivity was measured on an aliquot fraction after addition of scintillation fluid in counting vials.\nIn order to type the GAGs produced in the supernatants from cells in culture, the redissolved alcoholic precipitates were treated with chondroitinase ABC (Proteus vulgaris) in a proportion of 0.5 mU/μL, for 3 h at 37° C. […] After centrifugation, the alcoholic precipitates were redissolved in 0.9% sodium chloride and then the radioactivity was measured on an aliquot fraction after addition of scintillation fluid in counting vials. […]"}, "[2]": {"test_system": "Normal human dermal fibroblasts (BIOAlternatives PF2)", "experiment": "Total GAG synthesis (3H-glucosamine incorporation) by normal human dermal fibroblasts", "type": "cell-based", "details": "10 μM, 72 h", "procedure": "Normal human dermal fibroblasts (BIOAlternatives PF2) were cultured in 96-well plates for 24 h. The culture medium was then replaced with culture medium containing or not containing (control) odiparcil at various concentrations (1 μM, 3 μM, 10 μM) or the TGF-β reference at 10 ng/ml (positive control), and then the cells were incubated for 72 h with addition of the ^3H-glucosamine radioactive label for evaluating total GAG synthesis. At the end of the incubation, a chaotropic buffer was added to the wells of the culture plates in order to lyse the fibroblasts. The total GAGs of the cell lysates were then purified by ion exchange chromatography (Q-Sepharose column). The radioactivity incorporated into the anionic fractions was measured by liquid scintillation."}, "[3]": {"test_system": "GM00034B fibroblast cells, isolated from an MPS I patient", "experiment": "Intracellular chondroitin sulfate content (immunofluorescence) in fibroblasts from an MPS I patient", "type": "cell-based, human", "details": "72 h", "procedure": "(§1) Human dermal fibroblasts (GM00034B fibroblast cells, isolated from an MPS I patient and GM00031 fibroblast cells, isolated from an unaffected donor) were obtained from the Coriell Institute for Medical Research. Cells were cultured in 96-well plates for 24 h. The culture medium was then replaced with culture medium containing or not containing (vehicle) odiparcil at various concentrations (0.03, 0.1, 0.3, 1, 3, or 10 μM), and then the cells were incubated for 72 h. After incubation, culture media were discarded and the cells were rinsed with PBS, then fixed in PFA 4%. A part of the wells was then incubated for 2 hours at 37° C. with an enzymatic solution of chondroitinase ABC (CSase). After 2 hours of digestion with CSase ABC buffers were discarded, then the cells were rinsed with PBS and permeabilized with PBS-Triton 0.1%. The cells were then labeled using a primary anti-chondroitin sulfate antibody."}, "[4]": {"test_system": "GM00031 fibroblast cells, isolated from an unaffected donor", "experiment": "Intracellular chondroitin sulfate content (immunofluorescence) in control fibroblasts", "type": "cell-based, human", "details": "72 h", "procedure": "as §1"}, "[5]": {"test_system": "GM00034B and GM01391 fibroblast cells, isolated from two MPS I patients", "experiment": "CS, DS and HS content by UPLC MSMS in MPS I fibroblasts", "type": "cell-based, human", "details": "10 μM, 72 h, FIG. 4", "procedure": "(§2) Human dermal fibroblasts (GM00034B and GM01391 fibroblast cells, isolated from two MPS I patients and GM03181 and GM00615 fibroblasts isolated from two MPS II patients) were obtained from the Coriell Institute for Medical Research. Cells were cultured in T25-flask for 24 h. The culture medium was then replaced with culture medium containing or not containing (vehicle) odiparcil at 10 μM, and then the cells were incubated for 72 h. After incubation, culture media were discarded and the cells were rinsed with PBS, then scrapped in PBS. Cells were then collected by centrifugation and cell pellets were frozen until further analysis. Quantitation of Heparan sulfate (HS), Dermatan sulfate (DS) and Chondroitin sulfate (CS) were performed using UPLC MSMS using a method adapted from method published in Zhang et al. 2015. Glycosaminoglycan values are expressed as mean+SD in μg GAG species per milligram protein."}, "[6]": {"test_system": "GM03181 and GM00615 fibroblasts isolated from two MPS II patients", "experiment": "CS, DS and HS content by UPLC MSMS in MPS II fibroblasts", "type": "cell-based, human", "details": "10 μM, 72 h, FIG. 4", "procedure": "as §2"}, "New Zealand Rabbits": {"test_system": "New Zealand Rabbits", "experiment": "Plasma GAG level and disaccharide composition in rabbits after oral administration", "type": "in vivo, rabbit", "details": "400 mg/kg oral", "procedure": "Odiparcil was administered Orally to New Zealand Rabbits at the Dose of 400 mg/kg. 4 h after the administration, the animals were anesthetized and blood samples were taken on citrate tubes after catherization of the carotid artery. After centrifugation, the plasma was removed and frozen. The plasma GAGs were isolated after digestion of the proteins with Pronase E, for 48 h at 50° C. The proteins and the protein residues were precipitated by adding trichloroacetic acid and incubated overnight at 4° C. After centrifugation, the supernatants were collected, and then dialyzed against 100 volumes of phosphate buffer, for 48 h at 4° C. A solution of cetylpyridinium chloride (0.1% final concentration) was added to the dialysates in order to precipitate the GAGs, for 24 h at ambient temperature. The samples were then centrifuged and the supernatant was removed. The precipitate obtained was redissolved in 2M sodium chloride and the GAGs were precipitated with 5 volumes of 95% ethanol. After centrifugation, the alcoholic precipitates were redissolved in 0.9% sodium chloride and desalified on a Sephadex G25 column (PD10).\nThe plasma GAGs extracted were quantified by assaying the uronic acid content, modified Bitter and Muir carbazole method. The qualitative analysis of the plasma GAG extracts was carried out by HPLC of the disaccharides obtained after enzymatic digestion with chrondroitinase ABC from Proteus vulgaris and chrondroitinase AC from Arthrobacter aurescens."}, "male C57B16/J mice [7]": {"test_system": "male C57B16/J mice", "experiment": "Urinary sulfated GAG levels in tilorone-induced mucopolysaccharidosis mouse model", "type": "in vivo", "procedure": "(§3) The effect of odiparcil on GAG storage was assessed in a model of mucopolysaccharidosis induced by Tilorone. Chronic administration of tilorone induces GAGs accumulation in various organs including liver, spleen, and kidney (Fischer et al. 1996, 315 (Pt 2):369-375; Prokopek 1991, 42:2187-2191). Tilorone (50 mg/kg/day) was administered via drinking water and odiparcil at 30 or 100 mg/kg/day (corresponding to 15 mg/kg and 50 mg/kg given bid, respectively) was given by oral gavage. Tilorone, odiparcil or vehicle were administered to male C57B16/J mice for 28 days.\nAfter 21 days of treatment, urine were collected over a 24 hour period by placing the animal in diuresis/metabolic cages. The activity of odiparcil was assessed by quantifying total sulfated GAG levels in the collected urine. After a 10 to 20 fold dilution of the urine in water, sulfated glycosaminoglycan concentrations were measured using Blyscan™ assay from Biocolor (UK) following the manufacturer's instructions. Creatinine levels were also assessed on undiluted urine samples, using the CREATININE (Jaffé) kit (ref 981811) from ThermoFisher according to the manufacturer's instructions. Urinary sulfated GAG levels were normalized by creatinine levels. The data were analyzed statistically by one-way analysis of variance followed by a Tukey's test between all groups: ***: p<0.001 for vehicle/vehicle, and $$$: p<0.001 for tilorone/vehicle."}, "male C57B16/J mice [8]": {"test_system": "male C57B16/J mice", "experiment": "Liver total sulfated GAG levels in tilorone-induced mucopolysaccharidosis mouse model", "type": "in vivo", "procedure": "as §3\nAt the end of the study period, animals were anesthetized and sacrificed. The liver of each animal was then collected, rinsed in physiological serum, blotted in absorbent paper and weighted. It was then cut in pieces and cooled by snap-freezing in liquid nitrogen before being stored at −80° C. The activity of odiparcil was assessed by quantifying total sulfated glycosaminoglycan (GAG) levels in the liver. Sulfated glycosaminoglycan concentration was measured using the Blyscan™ assay from Biocolor (UK) following the manufacturer's instructions. The data were statistically analyzed by one-way analysis of variance followed by a Tukey's test between all groups: ***: p<0.001 vs vehicle/vehicle, and $: p<0.05 vs tilorone/vehicle."}, "[9]": {"details": "tilorone 50 mg/kg/day via drinking water, vs vehicle/vehicle"}}}
{"smiles": "Cc1cc(=O)oc2cc(O[C@@H]3SC[C@@H](O)[C@H](O)[C@H]3O)ccc12", "note": "[Odiparcil, 4-methyl-2-oxo-2H-1-benzopyran-7-yl-5-thio-β-D-xylopyranoside]", "values": [{"measurement": "type of GAGs synthesized by the cells in culture (enzymatic digestions)", "setting": "[1]; chondroitinase ABC / heparinase II digestion", "result": "predominantly of chondroitin sulfate type"}, {"measurement": "level of 35S-labeled GAGs in the culture supernatant", "setting": "[1]; odiparcil 1-10 μM, 24 h, FIG. 1", "result": "increases, in a dose-dependent manner"}, {"measurement": "total GAG synthesis (dose dependence)", "setting": "[2]; 1 μM, 3 μM, FIG. 2", "result": "stimulates, in a dose-dependent manner"}, {"measurement": "stimulation of total GAG synthesis vs control", "setting": "[2]", "result": "+94%"}, {"measurement": "intracellular chondroitin sulfate (CS) content", "setting": "[3]; 0.03-10 μM, FIG. 3", "result": "inhibited, in a dose-dependent manner"}, {"measurement": "IC50 for reduction of intracellular CS", "setting": "[3]", "result": "in the μM range"}, {"measurement": "extent of reduction of intracellular CS", "setting": "[3]", "result": "complete reduction"}, {"measurement": "intracellular chondroitin sulfate (CS) content", "setting": "[4]; 0.03-10 μM, FIG. 3", "result": "inhibited, in a dose-dependent manner"}, {"measurement": "IC50 for reduction of intracellular CS", "setting": "[4]", "result": "in the μM range"}, {"measurement": "extent of reduction of intracellular CS", "setting": "[4]", "result": "complete reduction"}, {"measurement": "chondroitin sulfate (CS) content", "setting": "[5]", "result": "inhibited"}, {"measurement": "dermatan sulfate (DS) content", "setting": "[5]", "result": "inhibited"}, {"measurement": "heparan sulfate (HS) content", "setting": "[5]", "result": "inhibited"}, {"measurement": "chondroitin sulfate (CS) content", "setting": "[6]", "result": "inhibited"}, {"measurement": "dermatan sulfate (DS) content", "setting": "[6]", "result": "inhibited"}, {"measurement": "heparan sulfate (HS) content", "setting": "[6]", "result": "inhibited"}, {"measurement": "Δdi-0S (%) nonsulfated disaccharides", "setting": "New Zealand Rabbits; rabbit plasma GAGs, 4 h", "result": 18.6, "unit": "%"}, {"measurement": "Δdi-4S (%) 4-sulfated disaccharides", "setting": "New Zealand Rabbits; rabbit plasma GAGs, 4 h", "result": 26, "unit": "%"}, {"measurement": "Δdi-4S DS (%) 4-sulfated disaccharides (dermatan sulfate component)", "setting": "New Zealand Rabbits; rabbit plasma GAGs, 4 h", "result": 20.5, "unit": "%"}, {"measurement": "Δdi-6S (%) 6-sulfated disaccharides (galactosamine-6-sulfate component)", "setting": "New Zealand Rabbits; rabbit plasma GAGs, 4 h", "result": 30.8, "unit": "%"}, {"measurement": "Δdi-UA2S (%) 2UA-sulfated disaccharides", "setting": "New Zealand Rabbits; rabbit plasma GAGs, 4 h", "result": 4.1, "unit": "%"}, {"measurement": "factor of increase of plasma GAG level compared with control animals", "setting": "New Zealand Rabbits; rabbit, 4 h", "result": 5}, {"measurement": "μg UA/ml plasma (plasma GAG level via uronic acid content)", "setting": "New Zealand Rabbits; rabbit, 4 h after administration", "result": 11.4, "unit": "μg UA/ml"}, {"measurement": "statistical significance of effect on urinary sulfated GAG levels vs tilorone/vehicle", "setting": "male C57B16/J mice [7]; odiparcil 30 and 100 mg/kg/day, p<0.001", "result": "statistically significant at both tested doses"}, {"measurement": "sulfated GAG levels in urine (normalized by creatinine)", "setting": "male C57B16/J mice [7]; odiparcil 30 or 100 mg/kg/day oral gavage with tilorone, urine after 21 days, FIG. 5", "result": "increased sulfated GAG levels in urine in a dose-dependent manner"}, {"measurement": "statistical significance of effect on total GAG liver content vs tilorone/vehicle", "setting": "male C57B16/J mice [8]; odiparcil 100 mg/kg/day, p<0.05", "result": "statistically significant"}, {"measurement": "tilorone-induced accumulation of liver total GAG levels", "setting": "male C57B16/J mice [8]; odiparcil 30 or 100 mg/kg/day oral gavage with tilorone, end of study, FIG. 6", "result": "decreased"}]}
{"smiles": "CCN(CC)CCOc1ccc2c(c1)C(=O)c1cc(OCCN(CC)CC)ccc1-2", "note": "[Tilorone, reference compound]", "values": [{"measurement": "GAG levels in urine", "setting": "male C57B16/J mice [7]; [9]", "result": "increased"}, {"measurement": "GAG levels in the liver", "setting": "male C57B16/J mice [8]; [9]", "result": "increased"}]}
